Laboratory results taken from US7412279B2, “Systems and methods for targeted magnetic resonance imaging of the vascular system” (Epix Pharmaceuticals, Inc., priority 2001, dated 2008).

Key:
thrombus [1] = test: In vivo MRI of thrombi in the rabbit carotid artery (crush injury) and jugular vein; parameters: species or system New Zealand White rabbit
Description: A 2.5 kg female New Zealand White rabbit was anesthetized with a cocktail of Ketamine (50 mg/kg), Aceapromazine (2.5 mg/kg), and Rompon (5 mg/kg), and anesthesia maintained with sodium pentobarbital (approx.35 mg/kg as needed). An i.v. catheter (24 g) was placed into the ear vein and the ear artery. The jugular vein and carotid artery were isolated. A stenosis was created in the carotid artery by placing an 18 g needle on top of the vessel and then suturing it into place with 3-0 suture. The needle was then removed. A 5 mm portion of the artery was then segmented off distally to the stenosis with microvascular clips. The artery was crushed twice along the 5 mm section. The proximal vascular clip was released to allow blood flow into the section for circa 3 sec. The clip was reapplied and the artery was crushed twice again along the 5 mm section. After 4 minutes, the clips were removed. A 5 mm segment of the jugular vein was isolated with microvascular clips. A thrombus was created by injecting 100 μL of a 3.7 units thrombin, 0.06 M CaCl2, rabbit whole blood mixture. After 4 minutes, the clips were removed.
The thrombi were allowed to age for 50 minutes. A 1.0 mL solution of a 5 mM targeted contrast agent (Structure III, 2 μmol/kg) was administered via the ear vein. […]

thrombus [2] = test: In vivo protocol: vascular agent followed by targeted agent, guinea pig jugular vein thrombus; parameters: species or system guinea pig (Hartley male); details: Example 1, 100 μmol/kg
Description: One procedure for in vivo imaging of a stationary target within the vascular system (e.g., a thrombus) with a vascular agent (e.g., an extracellular contrast agent or a blood pool agent), and a targeted contrast agent is as follows: A 600 g guinea pig (Hartley male) is anaesthetized. An incision is made in the throat and one of the jugular veins is isolated. A 1 cm section of the jugular vein is isolated with vascular clamps. Freshly drawn blood from the animal (50 μL) is mixed with human thrombin (50 μL, 4 units) and injected into the clamped segment of the vein. Four minutes after injection, the clamps are removed and the thrombus is allowed to age for 30 minutes. GdDTPA (Magnevist®), 100 μmol/kg, an extracellular contrast agent, is injected and the throat area of the guinea pig is imaged using the following pulse sequence on a GE Medical Systems 1.5T MRI: Tl-weighted SPGR, TE=3.1, TR=22, flip angle=40°. […] After 30 minutes, GdDTPA has cleared from the blood and a stationary target (thrombus) targeted MRI agent is injected at a dose of 6 μmol/kg. […]

thrombus [3] = test: In vivo MRI of a jugular vein thrombus in the guinea pig, extracellular vascular agent followed by targeted agent; parameters: species or system guinea pig (Hartley male); details: vascular MR image
Description: A 600 g guinea pig (Hartley male) was anaesthetized with a cocktail of Ketamine (50 mg/kg), Aceapromazine (2.5 mg/kg), and Rompon (5 mg/kg), and anesthesia maintained with sodium pentobarbital (approx.35 mg/kg as needed). An incision was made in the throat and one of the jugular veins was isolated. A 1 cm section of the jugular vein was isolated with vascular clamps. Freshly drawn blood from the animal (50 μL) was mixed with human thrombin (50 uL, 4 units) and injected into the clamped segment of the vein. Four minutes after injection, the clamps were removed and the thrombus was allowed to age for 30 minutes.
The animal was placed inside a General Electric Signa LxCVi 1.5 tesla scanner and imaged using a 3D RF spoiled gradient echo sequence (SPGR) with the following parameters TR=22 ms, TE=3.1 ms, flip angle=40 degree, field of view=8 cm, acquisition bandwith=31.25 kHz. After one scan, an extracellular vascular MRI contrast agent, GdDTPA (Magnevist®), 100 μmol/kg, was injected via a catheter in the carotid artery. The image sequence was repeated 5 times over the next 30 minutes to acquire the vascular MRI data set. […]

Compound	visibility of blood vessels (carotid arteries, jugular veins) in MIP (thrombus [1]; Example 6, 80 μmol Gd/kg, image acquired immediately after injection)	signal intensity of both the blood and thrombus (thrombus [1]; Example 9, 80 μmol Gd/kg, injected 80 minutes after the targeted agent)	enhancement of the thrombus (thrombus [2])	enhancement of the vasculature (thrombus [2]; immediately after injection)	enhancement of the vascular system (thrombus [3]; Example 10, 100 μmol/kg via carotid artery catheter) [fold]	enhancement of the thrombus (thrombus [3]; Example 10, 100 μmol/kg)
Gd-DTPA-BSA	readily visible	increased dramatically	–	–	–	–
O=C([O-])CN(CCN(CC(=O)[O-])CC(=O)O)CCN(CC(=O)[O-])CC(=O)O.[Gd+3] [GdDTPA]	–	–	no enhancement	some enhancement	4	no observable enhancement
